From BindingDB's records for doi:10.1016/j.bmcl.2006.12.077 (Glaxosmithkline, 2007)

Target: Vascular endothelial growth factor receptor 2 (Homo sapiens, UniProt P35968)
Test: Homogeneous Time-Resolved Fluorescence (HTRF) Enzyme Assay
Details: pH 7.5; 22 °C
Experimental: The assay uses purified GST-Tie-2 or GST-6x His-VEGFR2 interacting with biotinylated peptide substrates. HTRF is based on the proximity of europium cryptate (donor fluorophore)-labeled antiphosphotyrosine and streptavidin labeled with APC (allophycocyanin), which have been brought together by a binding reaction. When the two entities come into close proximity and upon excitation, energy transfer occurs and APC re-emits at 665 nm. The IC50 values for inhibitors were determined by a four-parameter sigmoidal curve fit.

Chain of Vascular endothelial growth factor receptor 2 (P35968 whole entry): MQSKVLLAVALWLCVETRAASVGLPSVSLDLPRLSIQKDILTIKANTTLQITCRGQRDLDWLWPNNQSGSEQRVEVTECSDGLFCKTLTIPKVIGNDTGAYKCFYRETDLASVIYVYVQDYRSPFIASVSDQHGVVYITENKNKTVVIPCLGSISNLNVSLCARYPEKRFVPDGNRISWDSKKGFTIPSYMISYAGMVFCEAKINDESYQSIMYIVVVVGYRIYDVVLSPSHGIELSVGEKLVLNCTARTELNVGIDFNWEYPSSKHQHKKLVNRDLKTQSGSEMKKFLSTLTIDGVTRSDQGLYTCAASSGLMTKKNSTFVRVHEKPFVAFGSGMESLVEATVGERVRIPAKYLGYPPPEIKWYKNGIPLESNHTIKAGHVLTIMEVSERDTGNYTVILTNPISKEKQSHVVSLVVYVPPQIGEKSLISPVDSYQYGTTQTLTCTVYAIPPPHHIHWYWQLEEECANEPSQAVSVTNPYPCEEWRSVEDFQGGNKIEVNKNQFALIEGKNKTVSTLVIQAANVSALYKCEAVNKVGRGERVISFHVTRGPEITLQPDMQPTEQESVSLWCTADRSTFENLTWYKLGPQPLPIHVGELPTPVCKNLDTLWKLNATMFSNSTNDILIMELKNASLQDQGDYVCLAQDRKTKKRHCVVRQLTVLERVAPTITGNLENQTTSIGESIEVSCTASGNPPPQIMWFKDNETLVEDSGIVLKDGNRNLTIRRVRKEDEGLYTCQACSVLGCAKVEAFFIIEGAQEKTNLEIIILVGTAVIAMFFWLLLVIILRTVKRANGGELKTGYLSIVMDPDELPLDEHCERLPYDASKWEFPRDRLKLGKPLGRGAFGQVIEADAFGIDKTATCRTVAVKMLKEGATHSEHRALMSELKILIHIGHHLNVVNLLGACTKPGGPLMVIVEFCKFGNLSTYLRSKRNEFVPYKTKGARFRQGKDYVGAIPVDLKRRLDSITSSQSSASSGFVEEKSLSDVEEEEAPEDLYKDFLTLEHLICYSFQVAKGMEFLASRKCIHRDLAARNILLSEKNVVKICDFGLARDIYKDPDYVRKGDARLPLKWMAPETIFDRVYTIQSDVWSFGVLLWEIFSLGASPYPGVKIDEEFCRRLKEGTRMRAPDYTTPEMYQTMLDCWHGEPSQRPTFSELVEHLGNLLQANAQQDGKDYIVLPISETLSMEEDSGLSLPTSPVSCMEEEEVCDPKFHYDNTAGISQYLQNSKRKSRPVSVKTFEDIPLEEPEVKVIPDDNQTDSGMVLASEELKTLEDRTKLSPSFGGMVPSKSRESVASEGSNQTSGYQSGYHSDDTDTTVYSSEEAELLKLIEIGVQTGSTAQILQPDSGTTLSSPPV

Compound	IC50
COc1ccc(-c2oc3ncnc(N)c3c2-c2ccc(NC(=O)Nc3cc(C(F)(F)F)ccc3F)cc2)cc1 [3-{4-[4-amino-6-(4-methoxyphenyl)furo[2,3-d]pyrimidin-5-yl]phenyl}-1-[2-fluoro-5-(trifluoromethyl)phenyl]urea]	15.5 nM
Nc1ncnc2occ(-c3ccc(NC(=O)Nc4cc(C(F)(F)F)cc(C(F)(F)F)c4)cc3)c12 [3-(4-{4-aminofuro[2,3-d]pyrimidin-5-yl}phenyl)-1-[3,5-bis(trifluoromethyl)phenyl]urea]	138 nM
